Reference: patent US20100041760A1, “MONOARYL AMINOTETRALINES” (priority 2008, published 2010)

What was measured:
[1] = target: T1, thromboxane A2 receptor (TP) (Homo sapiens, UniProt P21731); assay: Human Thromboxane A2 Receptor Binding Assay; conditions: human platelets; 10 nM [3H]SQ29548; 1 hour, room temperature
T1 construct: using human platelets as the source of the receptor; from tissue; host or cells: human platelets (whole platelets, 5x10^7 per well)
T1 sequence (P21731 1-343): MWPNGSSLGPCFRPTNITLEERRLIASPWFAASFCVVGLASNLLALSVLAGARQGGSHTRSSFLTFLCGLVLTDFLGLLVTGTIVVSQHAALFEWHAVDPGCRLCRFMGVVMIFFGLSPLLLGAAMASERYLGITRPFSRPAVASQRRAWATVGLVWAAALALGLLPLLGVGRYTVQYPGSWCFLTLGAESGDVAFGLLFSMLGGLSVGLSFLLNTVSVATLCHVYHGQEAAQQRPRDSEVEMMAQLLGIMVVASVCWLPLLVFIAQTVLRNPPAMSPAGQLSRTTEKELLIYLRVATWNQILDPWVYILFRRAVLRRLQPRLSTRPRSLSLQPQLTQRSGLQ
Text: The thromboxane A2 receptor (TP) plays a key role in hemostasis as its abnormality leads to bleeding disorders. To avoid the potential liability of bleeding disorders, the binding activity of certain compounds of the present invention against TP was monitored by a receptor binding assay using human platelets as the source of the receptor and [^3H]SQ29548 (generically named (5Z)-[5,6-^3H]-7-[(1S,2R,3R,4R)-3-[[2-[(phenylamino)carbonyl]hydrazinyl]methyl]-7-oxabicyclo[2.2.1]hept-2-yl]-5-heptenoic acid, from PerkinElmer Inc.) as the competing radioactive ligand.
The TP binding reactions (0.2 mL) were performed in 96-well plates at room temperature in PBS containing 5×10^7 platelets, 10 mM MgCl2, 0.06% BSA, 10 nM [^3H]SQ29548, and the test compound at various concentrations. After 1 hour of binding reactions, the platelets were harvested on GF/B filter plates (as previously described from PerkinElmer Inc.) and washed 5 times with PBS using a Filtermate™ Harvester (as previously described from PerkinElmer Inc.). The radioactivities bound to the platelets were determined using a microplate scintillation counter (TopCount® NXT, from PerkinElmer Inc.) after adding 50 μL of Microscint™ 20 scintillation fluid (from PerkinElmer Inc.) to each well of the filter plates. The radioactivity from non-specific binding was determined by replacing the compound with 10 μM of ramatroban (BAY-u3405, from Cayman Chemical Company) in the reaction mixtures. The radioactivity bound to the platelets in the absence of compound (total binding) was determined by replacing the compound with 0.25% of DMSO in the reaction mixture. Specific binding data were obtained by subtracting the radioactivity of non-specific binding from each binding data.
(§1) The IC50 value is defined as the concentration of the tested compound that is required for 50% inhibition of total specific binding. In order to calculate the IC50 value, the percent inhibition data were determined for 7 concentrations for each compound. The percent inhibition for a compound at each concentration was calculated according to the following formula, [1−(specific binding in the presence of compound)/(total specific binding)]×100. The IC50 value was then obtained by fitting the percent inhibition data to a sigmoidal dose-response (4 parameter logistic) model in the XLfit® software Excel add-in program [from ID Business Solutions Ltd., model 205, where F(x)=(A+(B−A)/(1+((C/x)̂D)))].

[2] = target: T2, human CRTH2 (Homo sapiens, UniProt Q9Y5Y4); assay: Human CRTH2 Receptor Binding Assay (whole cell, [3H]ramatroban competition); parameters: expressed in transfected cells; host or cells: CHO-K1 (co-transfected with G-alpha16); conditions: CHO-K1 cells expressing human CRTH2 and G-alpha16; 20 nM [3H]ramatroban; 1 hour, room temperature
T2 sequence (Q9Y5Y4 1-395): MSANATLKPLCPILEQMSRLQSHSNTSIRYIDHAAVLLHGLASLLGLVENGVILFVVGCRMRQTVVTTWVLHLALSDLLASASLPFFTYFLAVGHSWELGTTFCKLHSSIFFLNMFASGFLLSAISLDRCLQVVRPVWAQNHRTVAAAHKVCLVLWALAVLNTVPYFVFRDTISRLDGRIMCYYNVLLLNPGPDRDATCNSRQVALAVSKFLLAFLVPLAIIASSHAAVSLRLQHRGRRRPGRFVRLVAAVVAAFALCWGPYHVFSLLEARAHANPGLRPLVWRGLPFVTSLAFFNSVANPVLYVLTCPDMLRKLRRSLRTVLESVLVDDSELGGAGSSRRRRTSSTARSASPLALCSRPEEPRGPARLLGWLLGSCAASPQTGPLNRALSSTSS
Text: A whole cell receptor binding assay using [^3H]ramatroban as the competing radioactive ligand was employed to evaluate the compound binding activity to human CRTH2. The radioactive ligand [^3H]ramatroban was synthesized according to Sugimoto et. al. (Eur. J. Pharmacol. 524, 30-37, 2005) to a specific activity of 42 Ci/mmol.
A cell line stably expressing human CRTH2 was established by transfecting CHO-K1 cells with two mammalian expression vectors that harbored human CRTH2 and G-alpha16 cDNAs, respectively, using FuGene® 6 transfection reagent (from Roche). Stable clones expressing CRTH2 were selected by staining each clone with BM16 (BD Pharmingen™ from BD Biosciences, a division of Becton, Dickinson and Company), which is a rat monoclonal antibody to human CRTH2. The cells were maintained as monolayer cultures in Ham's F-12 medium containing 10% fetal bovine serum, 100 units/mL penicillin, 100 μg/mL streptomycin, 2 mM glutamine, 0.5 mg/mL G418 (geneticin) for CRTH2, and 0.2 mg/mL hygromycin-B (for G-alpha 16). For whole cell receptor binding assay, the monolayer cells were rinsed once with PBS (phosphate buffered saline), dissociated using ethylenediaminetetraacetate (Versene™ EDTA from Lonza Inc.), and suspended in PBS containing 10 mM MgCl2 and 0.06% BSA (bovine serum albumin) at 1.5×10^6 cells/mL.
The binding reactions (0.2 mL) were performed in 96-well plates at room temperature in PBS containing 1.5×10^5 cells, 10 mM MgCl2, 0.06% BSA, 20 nM [^3H]ramatroban, and test compound at various concentrations. After 1 hour of binding reactions, the cells were harvested on GF™/B filter microplates (microtiter plates with embedded glass fiber from PerkinElmer, Inc.) and washed 5 times with PBS using a Filtermate™ Harvester (a cell harvester that harvests and washes cells from microplates from PerkinElmer, Inc.). The radioactivities bound to the cells were determined using a microplate scintillation counter (TopCount® NXT, from PerkinElmer, Inc.) after adding 50 μL of Microscint™ 20 scintillation fluid (from PerkinElmer, Inc.) to each well of the filter plates. The radioactivity from non-specific binding was determined by replacing compound with 10 μM of 15(R)-15-methyl PGD2 (from Cayman Chemical Company) in the reaction mixtures. The radioactivity bound to the cells in the absence of compound (total binding) was determined by replacing compound with 0.25% of DMSO (dimethyl sulfoxide) in the reaction mixture. Specific binding data were obtained by subtracting the radioactivity of non-specific binding from each binding data.
as §1

Row | SMILES | IC50 [1] | IC50 [2]
1 | CC(C)c1cc(C(F)(F)F)cc(S(=O)(=O)N[C@@H]2CCCc3c(OCC(=O)O)cccc32)c1 [Example 10-6, [(R)-5-(3-isopropyl-5-trifluoromethyl-benzenesulfonylamino)-5,6,7,8-tetrahydro-naphthalen-1-yloxy]-acetic acid] | > 10 µM | 0.0135 µM
2 | CC1(c2cc(C(F)(F)F)cc(S(=O)(=O)N[C@@H]3CCCc4c(OCC(=O)O)cccc43)c2)CC1 [Example 10-7, {(R)-5-[3-(1-methyl-cyclopropyl)-5-trifluoromethyl-benzenesulfonylamino]-5,6,7,8-tetrahydro-naphthalen-1-yloxy}-acetic acid] | > 10 µM | 0.0184 µM
3 | CC(C)(C)c1cc(C(C)(C)C)cc(S(=O)(=O)N[C@@H]2CCCc3c(OCC(=O)O)cccc32)c1 [Example 10-8, [(R)-5-(3,5-di-tert-butyl-benzenesulfonylamino)-5,6,7,8-tetrahydro-naphthalen-1-yloxy]-acetic acid] | > 10 µM | 0.031 µM
4 | CS(=O)(=O)c1cc(S(C)(=O)=O)cc(S(=O)(=O)N[C@@H]2CCCc3c(OCC(=O)O)cccc32)c1 [Example 10-9, [(R)-5-(3,5-bis-methanesulfonyl-benzenesulfonylamino)-5,6,7,8-tetrahydro-naphthalen-1-yloxy]-acetic acid] | > 10 µM | 0.009 µM
5 | COc1cc(C(F)(F)F)cc(S(=O)(=O)N[C@@H]2CCCc3c(OCC(=O)O)cccc32)c1 [Example 10-10, [(R)-5-(3-methoxy-5-trifluoromethyl-benzenesulfonylamino)-5,6,7,8-tetrahydro-naphthalen-1-yloxy]-acetic acid] | > 10 µM | 0.018 µM
6 | O=C(O)COc1cccc2c1CCC[C@H]2NS(=O)(=O)c1cc(Br)cc(C(F)(F)F)c1 [Example 10-11, [(R)-5-(3-bromo-5-trifluoromethyl-benzenesulfonylamino)-5,6,7,8-tetrahydro-naphthalen-1-yloxy]-acetic acid] | > 10 µM | 0.009 µM

Continued, values first:

Row | IC50 [1] | IC50 [2] | SMILES
7 | > 10 µM | 0.147 µM | CC(C)Oc1cc(C(F)(F)F)cc(S(=O)(=O)N(C)[C@@H]2CCCc3c(OCC(=O)O)cccc32)c1 [Example 9-1, {(R)-5-[(3-isopropoxy-5-trifluoromethyl-benzenesulfonyl)-methyl-amino]-5,6,7,8-tetrahydro-naphthalen-1-yloxy}-acetic acid]
8 | > 10 µM | 0.006 µM | CC(F)(F)c1cc(C(F)(F)F)cc(S(=O)(=O)N[C@@H]2CCCc3c(OCC(=O)O)cccc32)c1 [Example 10-2, {(R)-5-[3-(1,1-difluoro-ethyl)-5-trifluoromethyl-benzenesulfonylamino]-5,6,7,8-tetrahydro-naphthalen-1-yloxy}-acetic acid]
9 | > 10 µM | 0.0063 µM | O=C(O)COc1cccc2c1CCC[C@H]2NS(=O)(=O)c1cc(C(F)(F)F)cc(C(F)(F)F)c1 [Example 10-3, [(R)-5-(3,5-bis-trifluoromethyl-benzenesulfonylamino)-5,6,7,8-tetrahydro-naphthalen-1-yloxy]-acetic acid]
10 | 8.18 µM | 0.31 µM | Cc1cc(C)cc(S(=O)(=O)N[C@@H]2CCCc3c(OCC(=O)O)cccc32)c1 [Example 10-4, [(R)-5-(3,5-dimethyl-benzenesulfonylamino)-5,6,7,8-tetrahydro-naphthalen-1-yloxy]-acetic acid]
